These results are taken from ChEMBL document CHEMBL3112483, “Synthesis and cytotoxic activity of MOM-ether analogs of isosteviol” (Bioorg Med Chem Lett, 2014).

Data set [1] can be described thus: Cytotoxicity against p53 deficient human H1299 cells at 100 uM after 24 hrs by MTT assay. It is filed as functional. Conditions: NCI-H1299, 24 h, read-out: GI. (In general: Tetrazolium assays rely on reduction of a dye to a coloured formazan, in cell work by metabolically active cells.)
The subject of another data set is A549. Description: Cytotoxicity against human A549 cells. It is filed as functional, cell-based.
In data set [2] the test system is NCI-H1299. Briefly: Induction of apoptosis in human […] cells expressing wild type p53 at IC50 assessed as histone release by ELISA relative to control. It is filed as functional. Background: An ELISA detects its analyte on a solid surface through an enzyme-linked reagent.
A short description of data set [3]: Induction of apoptosis in human NL20 cells at IC50 assessed as histone release by ELISA relative to control. It is filed as cell-based.
The nature of data set [4]: Cytotoxicity against human NL20 cells at IC50 after 24 hrs by MTT assay. It is filed as cell-based. To be noted: nl20, 24 h.
The test system of data set [5] is NCI-H1299. Briefly: Induction of apoptosis in p53 deficient human H1299 cells at IC50 assessed as histone release by ELISA relative to control. It is filed as functional.
A short description of data set [6]: Cytotoxicity against p53 deficient human H1299 cells after 24 hrs by MTT assay. To be noted: NCI-H1299, 24 h. It is filed as functional, cell-based.

Consider `COCO[C@@H]1C[C@]23CC[C@@H]4[C@](C)(COC(=O)Nc5ccc(C(C)=O)cc5)CCC[C@@]4(C)[C@@H]2CC[C@@]1(C)C3`, for which the inhibition of growth at 100 µM in data set [1] turned out to be 60%. Same read-out and setting: in the case of `COCO[C@@H]1C[C@]23CC[C@@H]4[C@](C)(COC(=O)COc5ccccc5)CCC[C@@]4(C)[C@@H]2CC[C@@]1(C)C3` it was 70%. As to `COCO[C@@H]1C[C@]23CC[C@@H]4[C@](C)(COC(=O)NCc5ccccc5)CCC[C@@]4(C)[C@@H]2CC[C@@]1(C)C3`, the inhibition of growth at 100 µM in data set [1] was 50%.

Consider `CCCNC(=O)OC[C@]1(C)CCC[C@]2(C)[C@@H]1CC[C@@]13C[C@@H](OCOC)[C@@](C)(CC[C@H]12)C3`, for which the inhibition of growth at 100 µM in data set [1] stood at 20%. As to `C[C@@]12CC[C@@H]3[C@@](CC[C@@H]4[C@](C)(COC(=O)/C=C/C(F)(F)F)CCC[C@]43C)(C[C@H]1O)C2`, 4.1 µM corresponded to half-maximal inhibition with A549 (IC50).

For `COCO[C@@H]1C[C@]23CC[C@@H]4[C@](C)(COC(=O)Nc5ccccc5)CCC[C@@]4(C)[C@@H]2CC[C@@]1(C)C3`, in data set [1], the inhibition of growth at 100 µM stood at 65%. On the same count and under the same terms, in the case of `COCO[C@@H]1C[C@]23CC[C@@H]4[C@](C)(CO)CCC[C@@]4(C)[C@@H]2CC[C@@]1(C)C3` it was 15%. For `COCO[C@@H]1C[C@]23CC[C@@H]4[C@](C)(COC(=O)NCc5ccc(OC)cc5)CCC[C@@]4(C)[C@@H]2CC[C@@]1(C)C3`, the figures for the “fold change (FC)” value (with NCI-H1299 [2]; in data set [3]; in the data set with NCI-H1299 [5]) were 2, 4 and 7, respectively. The same compound returned an Activity in data set [4] of 20%. Moreover, the inhibition of growth at 100 µM in data set [1] is 89%. This compound also had a 50% inhibitory concentration (IC50) in data set [6] of 21 µM. With `COCO[C@@H]1C[C@]23CC[C@@H]4[C@](C)(COC(=O)c5ccccc5)CCC[C@@]4(C)[C@@H]2CC[C@@]1(C)C3`, in data set [1], the inhibition of growth at 100 µM is 8%.

Take `CCCCCCCC(=O)OC[C@]1(C)CCC[C@]2(C)[C@@H]1CC[C@@]13C[C@@H](OCOC)[C@@](C)(CC[C@H]12)C3`: the “fold change (FC)” value came to 2 in the data set with NCI-H1299 [2], 4 in data set [3] and 10 in the data set on NCI-H1299 [5]. The Activity in data set [4] worked out at 20%. Also, the inhibition of growth at 100 µM in data set [1] was 95%. In data set [6], half-maximal inhibition (IC50) was put at 14 µM. `COCO[C@@H]1C[C@]23CC[C@@H]4[C@](C)(COC(=O)C(C)C)CCC[C@@]4(C)[C@@H]2CC[C@@]1(C)C3`: in data set [1], the inhibition of growth at 100 µM was determined as 20%.

As to `CCCCCCCC(=O)OC[C@]1(C)CCC[C@]2(C)[C@@H]1CC[C@@]13C[C@@H](O)[C@@](C)(CC[C@H]12)C3`, the inhibition of growth at 100 µM in data set [1] was 48%.

Take `COCO[C@@H]1C[C@]23CC[C@@H]4[C@](C)(COC(C)=O)CCC[C@@]4(C)[C@@H]2CC[C@@]1(C)C3`: in data set [1], the inhibition of growth at 100 µM was 13%.

In general, IC50 refers to the concentration that inhibits the measured activity by half. Read a low IC50 as greater potency in that assay.
